Data published in ChEMBL document CHEMBL1138140, “Inhibition of DNA helicases with DNA-competitive inhibitors” (Bioorg Med Chem Lett, 2006).

What was measured:
Type in all cases: functional
[1] = target: T1, DNA helicase IV (Escherichia coli K-12) (UniProt P15038); experiment: Inhibition of ATPase activity of Helicase4 from Escherichia coli at 10 uM
T1 sequence (whole entry): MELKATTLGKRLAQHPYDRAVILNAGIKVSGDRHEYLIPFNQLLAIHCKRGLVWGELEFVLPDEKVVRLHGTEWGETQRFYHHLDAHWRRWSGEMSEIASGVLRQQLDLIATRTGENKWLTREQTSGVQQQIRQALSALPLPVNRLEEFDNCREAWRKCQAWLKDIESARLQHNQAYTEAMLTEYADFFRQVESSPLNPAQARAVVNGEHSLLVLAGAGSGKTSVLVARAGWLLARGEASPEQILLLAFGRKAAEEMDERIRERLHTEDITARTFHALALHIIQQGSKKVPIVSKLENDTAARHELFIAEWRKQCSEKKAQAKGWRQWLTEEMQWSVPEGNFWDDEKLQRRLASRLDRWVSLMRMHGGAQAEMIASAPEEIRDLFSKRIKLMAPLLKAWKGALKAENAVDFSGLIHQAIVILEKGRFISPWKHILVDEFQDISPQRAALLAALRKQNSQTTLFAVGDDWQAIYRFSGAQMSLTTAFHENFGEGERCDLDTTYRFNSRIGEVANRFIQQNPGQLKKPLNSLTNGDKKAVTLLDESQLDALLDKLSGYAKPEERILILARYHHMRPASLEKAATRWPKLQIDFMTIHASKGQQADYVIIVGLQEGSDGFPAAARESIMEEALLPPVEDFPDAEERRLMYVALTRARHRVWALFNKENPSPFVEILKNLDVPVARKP

[2] = target: T1, DNA helicase IV (Escherichia coli K-12); experiment: Inhibition of helicase activity of Helicase4 from Escherichia coli at 10 uM
DNA helicase IV [3] = target: T2, DNA helicase IV (Escherichia coli K-12, UniProt P15038); experiment: Inhibition of ATPase activity of Helicase4 from Escherichia coli in presence of ATP (5x Km(ATP)) and dT25 (5x KDNA)
T2 sequence (P15038 whole entry): T1 sequence (whole entry)

DNA helicase IV [4] = target: DNA helicase IV (Escherichia coli K-12, UniProt P15038, Y473A); experiment: Inhibition of ATPase activity of Tyr473Ala mutated Helicase4 in presence of ATP (5x Km(ATP)) and dT25 (5x KDNA)
Sequence of DNA helicase IV (Escherichia coli K-12, UniProt P15038, Y473A) (P15038 whole entry Y473A): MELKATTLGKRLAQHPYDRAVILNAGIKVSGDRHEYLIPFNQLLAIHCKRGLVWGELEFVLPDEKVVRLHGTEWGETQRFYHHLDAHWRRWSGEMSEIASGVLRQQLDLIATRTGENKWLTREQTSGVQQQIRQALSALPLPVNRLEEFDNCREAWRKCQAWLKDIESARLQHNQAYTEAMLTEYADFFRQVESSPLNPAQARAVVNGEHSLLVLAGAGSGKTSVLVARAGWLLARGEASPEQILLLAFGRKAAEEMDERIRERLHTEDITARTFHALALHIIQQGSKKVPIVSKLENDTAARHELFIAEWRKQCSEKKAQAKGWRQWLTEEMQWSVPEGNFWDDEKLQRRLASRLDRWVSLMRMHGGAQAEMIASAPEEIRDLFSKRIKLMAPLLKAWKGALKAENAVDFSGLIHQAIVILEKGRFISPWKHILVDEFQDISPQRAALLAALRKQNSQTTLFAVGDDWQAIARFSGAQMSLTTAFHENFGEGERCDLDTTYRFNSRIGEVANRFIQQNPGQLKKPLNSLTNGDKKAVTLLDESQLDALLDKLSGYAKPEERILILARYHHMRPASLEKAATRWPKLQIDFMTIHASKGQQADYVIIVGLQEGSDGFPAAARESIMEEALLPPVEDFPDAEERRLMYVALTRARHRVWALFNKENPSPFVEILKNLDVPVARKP

| inhibition [1] | inhibition [2] | IC50 (DNA helicase IV [3]) | SMILES | IC50 (DNA helicase IV [4]) |
| --- | --- | --- | --- | --- |
| 0% | 5% |  | CCOC(=O)Cc1ccc2c(c1)C(=O)c1ccccc1CS2 |  |
| 2% | 0% |  | O=C(O)Cc1ccc2c(c1)C(=O)c1ccccc1C[S+]2[O-] (configuration not stated) |  |
| 99% | 89% | 1.4 µM | CC(=O)Nc1ccc2c(c1)C(=O)c1cc(CC(=O)O)ccc1SC2 |  |
| 98% | 93% | 3 µM | CC(C(=O)O)c1ccc2c(c1)C(=O)c1ccccc1CS2 (configuration not stated) |  |
| 78% | 53% | 7 µM | Cc1ccc2c(c1)CSc1ccc(CC(=O)O)cc1C2=O |  |

| SMILES | inhibition [1] | inhibition [2] | IC50 (DNA helicase IV [3]) | IC50 (DNA helicase IV [4]) |
| --- | --- | --- | --- | --- |
| O=C(O)Cc1ccc2c(c1)C(=O)c1ccccc1CS2 | 93% | 79% | 5 µM | 5.5 µM |
